{P} = phosphate
What was measured:
[1] = tested on: keratinocyte cell line (SSC12F); experiment: S-phase arrest by FACS in keratinocyte cell line; type: cell-based; conditions: 48 hours, 11mer-1 alone (10 μM per FIG. 3B)
Description: FIGS. 3A-3G are profiles showing the results of fluorescence activated cell sorting, for the following additions to the cells: FIG. 3A, diluent; FIG. 3B, 10 μM 11mer-1; FIG. 3C, 10 μM 11mer-1 and 1 μM 11mer-1-S; FIG. 3D, 10 μM 11mer-1 and 5 μM 11mer-1-S; FIG. 3E, 10 μM 11mer-1 and 10 μM 11mer-1-S; FIG. 3F, 20 μM 11mer-1-S; FIG. 3G, 10μM 11mer-1-S.
Forty-three percent of the cells were in the S phase, compared to 26% of the control, diluent-treated cells.

[2] = tested on: phospho-p53 serine 15, phospho-p95 serine 343; experiment: T-oligo response in fibroblasts with Mre11 siRNA knockdown, Western blot and densitometry; type: cell-based, human; conditions: fibroblasts with significantly reduced MRE11 levels (Mre11 siRNA), 48 hours
Description: Normal human neonatal fibroblasts were treated with either 10 pmoles Mre11 siRNA or 10 pmoles control (no homology found in expressed human sequences). Cultures dishes were approximately 60% confluent on the day of siRNA transfection. Transfections were carried out using Lipofectamine 2000 (Invitrogen, Carlsbad, Calif.) following the protocol supplied by the manufacturer. The transfection cocktail was applied to the cells for 5 hours and then replaced with fresh medium alone. The next day, the transfection protocol was repeated. The following day, duplicate cultures were treated with the T-oligo or with diluent alone as a negative control. Cells were then collected 48 hours later and the protein analyzed by Western blot using antibodies specific for phospho-p95 serine 343 (Cell Signaling Technology, Beverly, Mass.), Mre11 (GeneTex, San Antonio, Tex.), phosphor-p53 serine 15 (Cell Signaling Technology) and total p53 (Oncogene, San Diego, Calif.) (FIG. 9). Hela cell lysate was used as a positive control for Mre11. Normal fibroblasts exposed to 10 Gy IR or sham irradiated and collected after one hour served as positive controls for p53 and p95/Nbs1 phosphorylation. The autoradiographs were analyzed by densitometry and the values for the T-oligo samples are expressed relative to the values for the diluent-treated samples (FIG. 10 and FIG. 11).

[3] = tested on: HT-1080 fibrosarcoma cells; experiment: BrdU incorporation assay, HT-1080 cells; type: cell-based, human
Description: FIG. 13a: Exposure to T-oligo increases SA-β-Gal activity. HT-1080 cells were treated for 4 days with diluent alone or 40 μM T-oligo or the complementary control oligo, then stained and assayed for SA-β-Gal activity. FIG. 13b: Quantitative analysis of SA-β-Gal positive cells. Cells expressing SA-β-Gal activity were counted and presented as percentage of total cells in the cultures. Averages and standard deviations were calculated from 3 representative fields from each of 3 independent experiments. FIG. 13c: Effect of T-oligo on cell proliferation. Cells were treated for 4 days as in FIG. 12 and assayed for DNA synthesis by BrdU incorporation. FIG. 13d: Quantitative analysis of BrdU incorporation. Dark black nuclei indicate BrdU incorporated into nuclear DNA. BrdU positive cells were calculated and presented as percentage of total cells in the cultures. Averages and standard deviations were calculated from 3 representative fields from each of 3 independent experiments. FIG. 13e: Effect of T-oligo on pRb phosphorylation. Cells were treated as in FIG. 13a and were then collected for protein analysis by western blot using 30 μg total protein and probed for pRb-ser780*, ser795* and ser807/811* (pRb phosphorylated at serine 780, serine 795 and serine 807/811 respectively). Lanes D, T and C contain protein samples from cells treated with diluent, T-oligo and complementary oligo respectively. β-actin was used as a loading control.
Parallel cultures were treated as described in FIG. 13a. Cells were then washed once with PBS and refed with complete medium without additional treatment for 24 hours or 48 hours. FIG. 14a: SA-β-Gal activity. […]
HT-1080 fibrosarcoma cells cultured on Permanox chamber slides were treated with diluent, 40 μM T-oligo or 40 μM complementary oligo for 4 days and DNA synthesis was assayed using 5-bromo-2′-deoxy-uridine (BrdU) Labeling and Detection Kit II (Roche Molecular Biochemicals, Indianapolis, Ind.) following the protocol supplied by the manufacturer. […] After incubation with anti-mouse-Ig-alkaline phosphatase, the color reaction was detected by light microscopy. […]

Saos-2 cells = experiment: FACS analysis of Saos-2 cells; type: cell-based; conditions: Saos-2 (telomerase negative), 40 μM, 48 hours
Description: (§1) FIG. 18a: FACS profiles from one representative experiment of three with the percentage and standard deviations of cells in each phase of the cell cycle was calculated from triplicate cultures of each condition. FIG. 18b: Western blots with an antibody specific for phospho-p95/Nbs1. Lanes 1, 2 and 3 contained protein from cells treated with diluent, 11mer-1 or 11mer-2, respectively. Control cells (3 hours) were irradiated with 10 Gy of IR (+), or were sham irradiated (−).
(§2) Saos-2 cells are an osteosarcoma cell line that is reportedly telomerase negative and maintain telomeres by the ALT pathway. Saos-2 cell lines were treated with either diluent or 40 μM of the indicated oligonucleotide and cells were collected after 48 hours for FACS analysis. […] The results that the effect of the T-oligo in the telomerase negative cells is identical to the response in telomerase positive malignant cell lines.

p95/Nbs1 phosphorylation = experiment: Western blot for phospho-p95/Nbs1 in Saos-2 cells; type: cell-based; conditions: 40 μM
Description: as §1, §2

p53 phosphoserine 37 = experiment: Western blot for p53 phosphoserine 37; type: cell-based; conditions: normal neonatal fibroblasts, 40 μM
Description: Western blot analysis was performed on normal neonatal cells using a antibody specific for p53 phosphoserine 37 after being treated with either diluent or 40 μM for the indicated times.
Normal neonatal fibroblasts were treated with either diluent or 40 μM (11mer-1) for 4, 6, 8, 19, 24 and 48 hours and then collected for Western blot analysis using an antibody specific for p53 phosphoserine 37. Sham and IR-irradiated (10 Gy) fibroblasts were used used as negative and positive controls, respectively.

Substance: pGTTAGGGTTAG (DNA, 5' {P}, backbone not given here; listed as Homo sapiens) [Oligonucleotide 11mer-1]
- cells in the S phase [1]: Forty-three
- phospho-p53 response to T-oligo [2]: reduced
- phospho-p95/Nbs1 response to T-oligo [2]: absent
- DNA synthesis (BrdU) after removal of oligo ([3]; HT-1080, 4 days 40 μM, then 1 and 2 days fresh medium without oligonucleotide): did not resume DNA synthesis
- BrdU incorporation (BrdU positive cells) ([3]; HT-1080 cells, 40 μM, 4 days): 7±2%
- S phase arrest (Saos-2 cells): causes an S phase arrest
- phosphorylation of p95/Nbs1 (p95/Nbs1 phosphorylation): induced phosphorylation
- p53 serine 37 phosphorylation (band intensity vs diluent) (p53 phosphoserine 37; 8 hours): detected
- p53 serine 37 phosphorylation (band intensity vs diluent) (p53 phosphoserine 37; 48 hours): very prominent
